In PubChem BioAssay AID296 (DTP/NCI, 2004):
Values joined by “and” are separate entries in the source; they are usually repeats but may differ in a detail not shown here. Equal values may be shown once. Results filed as inconclusive are left out.

Tested on: MX-1 breast xenograft, nude mice, tumor weight T/C
Assay: NCI In Vivo Anticancer Drug Screen. Data for tumor model Human Mammary Carcinoma MX-1 Xenograft (intrarenal inoculation) in NU/NU Swiss (nude) mice
Settings: endpoint: mean tumor weight change, higher = larger tumour
Procedure, shortened: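 Tumor-bearing mice were treated with test compound alongside a vehicle-treated control group. Survival or tumor size was measured, and activity is expressed as the treated-group value divided by the control-group value.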

[1] = dose: 150.0 mg/kg/injection, schedule: Q04DX003 (sc), vehicle: Klucel (hydroxypropylcellulose) (HPC)
[2] = dose: 300.0 mg/kg/injection, schedule: Q04DX003 (sc), vehicle: Klucel (hydroxypropylcellulose) (HPC)
[3] = dose: 300.0 mg/kg/injection, schedule: Q04DX003 (sc), vehicle: saline
[4] = dose: 1200.0 mg/kg/injection, schedule: Q04DX003 (sc), vehicle: saline
[5] = dose: 200.0 mg/kg/injection, schedule: Q04DX003 (sc), vehicle: saline with Tween-80

## O=C1c2ccccc2C(=O)c2c(NCCNCCO)ccc(NCCNCCO)c21
dose: 4.0 mg/kg/injection, schedule: Q01DX010 (ip), vehicle: water
  T/C: 59 % of control
dose: 8.0 mg/kg/injection, schedule: Q01DX010 (ip), vehicle: water
  T/C: 80 % of control
dose: 13.33 mg/kg/injection, schedule: Q04DX003 (ip), vehicle: water
  T/C: 45 % of control
dose: 13.33 mg/kg/injection, schedule: Q04DX003 (sc), vehicle: water
  T/C: 65 % of control
dose: 16.0 mg/kg/injection, schedule: Q01DX010 (ip), vehicle: water
  T/C: 61 % of control
dose: 16.0 mg/kg/injection, schedule: Q01DX010 (sc), vehicle: water
  T/C: 13 % of control and 25 % of control
dose: 26.65 mg/kg/injection, schedule: Q04DX003 (sc), vehicle: water
  T/C: 32 % of control
dose: 32.0 mg/kg/injection, schedule: Q01DX010 (ip), vehicle: water
  T/C: 20 % of control
dose: 53.3 mg/kg/injection, schedule: Q04DX003 (ip), vehicle: water
  T/C: 31 % of control
dose: 53.3 mg/kg/injection, schedule: Q04DX003 (sc), vehicle: water
  T/C: 31 % of control

## Cc1cc(N2C(=O)CCSC2=S)ccc1Cl
[1]
  T/C: 169 % of control
[2]
  T/C: 90 % of control
dose: 600.0 mg/kg/injection, schedule: Q04DX003 (sc), vehicle: Klucel (hydroxypropylcellulose) (HPC)
  T/C: 63 % of control
dose: 1200.0 mg/kg/injection, schedule: Q04DX003 (sc), vehicle: Klucel (hydroxypropylcellulose) (HPC)
  T/C: 96 % of control

## N=c1ccn2c(n1)OC1C(O)C(CO)OC12 (centres undefined)
dose: 150.0 mg/kg/injection, schedule: Q04DX003 (sc), vehicle: saline
  T/C: 102 % of control
[3]
  T/C: 84 % of control
dose: 400.0 mg/kg/injection, schedule: Q04DX003 (sc), vehicle: saline
  T/C: 95 % of control
dose: 600.0 mg/kg/injection, schedule: Q04DX003 (sc), vehicle: saline
  T/C: 42 % of control
dose: 600.0 mg/kg/injection, schedule: Q04DX003 (sc), vehicle: suspension in saline
  T/C: 70 % of control
dose: 800.0 mg/kg/injection, schedule: Q04DX003 (sc), vehicle: saline
  T/C: 69 % of control
[4]
  T/C: 50 % of control
dose: 1200.0 mg/kg/injection, schedule: Q04DX003 (sc), vehicle: suspension in saline
  T/C: 55 % of control
dose: 1600.0 mg/kg/injection, schedule: Q04DX003 (sc), vehicle: saline
  T/C: 64 % of control
dose: 2400.0 mg/kg/injection, schedule: Q04DX003 (sc), vehicle: suspension in saline
  T/C: 70 % of control

## CN=C(N)N/N=C(\C)c1ccc2c(c1)Cc1cc(/C(C)=N/NC(N)=NC)ccc1-2
dose: 6.0 mg/kg/injection, schedule: Q04DX003 (sc), vehicle: saline with Tween-80
  T/C: 46 % of control
dose: 12.0 mg/kg/injection, schedule: Q04DX003 (sc), vehicle: saline with Tween-80
  T/C: 84 % of control
dose: 24.0 mg/kg/injection, schedule: Q04DX003 (sc), vehicle: saline with Tween-80
  T/C: 100 % of control
dose: 48.0 mg/kg/injection, schedule: Q04DX003 (sc), vehicle: saline with Tween-80
  T/C: 58 % of control

## NC(Cn1ccc(=O)c(O)c1)C(=O)O (centres undefined)
[3]
  T/C: 72 % of control
[4]
  T/C: 88 % of control
dose: 2400.0 mg/kg/injection, schedule: Q04DX003 (sc), vehicle: saline
  T/C: 88 % of control

## COc1cc(NCc2ccc3nc(N)nc(N)c3c2C)cc(OC)c1OC (tested in a mixture with another compound)
dose: 10.0 mg/kg/injection, schedule: Q04DX003 (ip), vehicle: water
  T/C: 92 % of control
dose: 20.0 mg/kg/injection, schedule: Q04DX003 (ip), vehicle: water
  T/C: 100 % of control
dose: 40.0 mg/kg/injection, schedule: Q04DX003 (ip), vehicle: water
  T/C: 101 % of control
dose: 80.0 mg/kg/injection, schedule: Q04DX003 (ip), vehicle: water
  T/C: 115 % of control
dose: 160.0 mg/kg/injection, schedule: Q04DX003 (ip), vehicle: water
  T/C: 70 % of control

## CN(CCN(C)C(=O)CCOS(C)(=O)=O)C(=O)CCOS(C)(=O)=O
dose: 50.0 mg/kg/injection, schedule: Q04DX003 (sc), vehicle: saline with Tween-80
  T/C: 41 % of control
dose: 50.0 mg/kg/injection, schedule: Q04DX003 (sc), vehicle: suspension in saline
  T/C: 16 % of control
dose: 100.0 mg/kg/injection, schedule: Q04DX003 (sc), vehicle: saline with Tween-80
  T/C: 1 % of control
dose: 100.0 mg/kg/injection, schedule: Q04DX003 (sc), vehicle: suspension in saline
  T/C: -86 % of control
[5]
  T/C: -65 % of control
dose: 200.0 mg/kg/injection, schedule: Q04DX003 (sc), vehicle: suspension in saline
  T/C: -100 % of control
dose: 400.0 mg/kg/injection, schedule: Q04DX003 (sc), vehicle: suspension in saline
  T/C: -100 % of control

## COC(=O)NC1C(C)OC(OC2C/C=C(/C)C3C=CC4C(OC5CC(OC6CCC(OC7CC(O)C(OC8CCC(O)C(C)O8)C(C)O7)C(C)O6)C(OC(C)=O)C(C)O5)C(C)CC(C)C4C3(C)/C(O)=C3/C(=O)OC4(CC(C=O)=CC(O)C4/C=C\2C)C3=O)CC1(C)[N+](=O)[O-] (centres undefined)
dose: 25.0 mg/kg/injection, schedule: Q04DX003 (sc), vehicle: other
  T/C: 95 % of control
dose: 50.0 mg/kg/injection, schedule: Q04DX003 (sc), vehicle: other
  T/C: 71 % of control

## CCCCCCCC(=O)OCC(=O)[C@]1(O)Cc2c(O)c3c(c(O)c2[C@@H](OC2CC(N)C(O)C(C)O2)C1)C(=O)c1c(OC)cccc1C3=O (some centres undefined)
dose: 4.0 mg/kg/injection, schedule: Q01DX010 (sc), vehicle: suspension in saline
  T/C: 17 % of control
dose: 8.0 mg/kg/injection, schedule: Q01DX010 (sc), vehicle: suspension in saline
  T/C: 2 % of control

## c1ccc2sc(SSN3CC4CCC(CC4)C3)nc2c1
dose: 200.0 mg/kg/injection, schedule: Q01DX010 (sc), vehicle: saline with Tween-80
  T/C: 156 % of control
dose: 400.0 mg/kg/injection, schedule: Q01DX010 (sc), vehicle: saline with Tween-80
  T/C: 95 % of control

## CC1(C)OCC(CO)(Nc2nc(N3CC3)nc(N3CC3)n2)CO1
dose: 2.5 mg/kg/injection, schedule: Q01DX010 (sc), vehicle: saline
  T/C: -75 % of control

## O=c1s[se]c2ccccc12
[1]
  T/C: 55 % of control
[2]
  T/C: 55 % of control

## CC(=O)OCC1(C)NC(=O)c2ccccc2O1 (centres undefined)
dose: 300.0 mg/kg/injection, schedule: Q04DX003 (sc), vehicle: saline with Tween-80
  T/C: 108 % of control
dose: 600.0 mg/kg/injection, schedule: Q04DX003 (sc), vehicle: saline with Tween-80
  T/C: 108 % of control
dose: 1200.0 mg/kg/injection, schedule: Q04DX003 (sc), vehicle: saline with Tween-80
  T/C: 156 % of control
dose: 2400.0 mg/kg/injection, schedule: Q04DX003 (sc), vehicle: saline with Tween-80
  T/C: 85 % of control

## C/C=C/C=C1/OC(C)=C(C(C)=O)C1=O
[5]
  T/C: 104 % of control
dose: 400.0 mg/kg/injection, schedule: Q04DX003 (sc), vehicle: saline with Tween-80
  T/C: 85 % of control

## CN(C)N=Nc1ccc(S(N)(=O)=O)cc1
dose: 100.0 mg/kg/injection, schedule: Q01DX010 (sc), vehicle: Klucel (hydroxypropylcellulose) (HPC)
  T/C: 75 % of control
dose: 200.0 mg/kg/injection, schedule: Q01DX010 (sc), vehicle: Klucel (hydroxypropylcellulose) (HPC)
  T/C: 47 % of control
dose: 400.0 mg/kg/injection, schedule: Q01DX010 (sc), vehicle: Klucel (hydroxypropylcellulose) (HPC)
  T/C: 42 % of control

## COc1c(O)c2c(c3cc(C(=O)N4CCc5c4c(O)c(OC)c4[nH]c(C(=O)N6CC7CC78C6=CC(=O)c6[nH]cc(C)c68)cc54)[nH]c13)CCN2C(N)=O (centres undefined)
dose: 2.5 mg/kg/injection, schedule: Q01DX010 (sc), vehicle: DMSO
  T/C: 37 % of control
dose: 5.0 mg/kg/injection, schedule: Q01DX010 (sc), vehicle: DMSO
  T/C: 82 % of control
dose: 10.0 mg/kg/injection, schedule: Q01DX010 (sc), vehicle: DMSO
  T/C: 1 % of control
dose: 6.25 micrograms/kg/injection, schedule: Q01DX010 (sc), vehicle: DMSO
  T/C: 63 % of control
dose: 12.5 micrograms/kg/injection, schedule: Q01DX010 (sc), vehicle: DMSO
  T/C: 53 % of control
dose: 25.0 micrograms/kg/injection, schedule: Q01DX010 (sc), vehicle: DMSO
  T/C: 68 % of control
dose: 50.0 micrograms/kg/injection, schedule: Q01DX010 (sc), vehicle: DMSO
  T/C: 90 % of control
dose: 100.0 micrograms/kg/injection, schedule: Q01DX010 (sc), vehicle: DMSO
  T/C: 85 % of control
dose: 400.0 micrograms/kg/injection, schedule: Q01DX010 (sc), vehicle: DMSO
  T/C: 117 % of control

## c1cc(NC2CCCCC2)ccc1CN1CCOCC1
dose: 50.0 mg/kg/injection, schedule: Q01DX010 (sc), vehicle: saline + Tween-80 + alcohol
  T/C: 66 % of control
dose: 100.0 mg/kg/injection, schedule: Q01DX010 (sc), vehicle: saline + Tween-80 + alcohol
  T/C: 38 % of control
dose: 200.0 mg/kg/injection, schedule: Q01DX010 (sc), vehicle: saline + Tween-80 + alcohol
  T/C: 81 % of control
dose: 400.0 mg/kg/injection, schedule: Q01DX010 (sc), vehicle: saline + Tween-80 + alcohol
  T/C: 61 % of control
